ChEMBL document CHEMBL1201862, “PubChem BioAssay data set” (2004)
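Grown in 96-well plates, cells were treated for 48 hours with each compound at five concentrations. Insufficient inhibition: endpoint recorded as highest concentration tested. At the GI50, growth is halved.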 Calls of active or inactive are those of the source. No stated cut-off is given here; in the data, active = GI50 up to about 1.1 µM and inactive = higher.

How the values were obtained:
Experiment in all cases: NCI-60 cell line screen, 48 h
NCI/ADR-RES = tested on: NCI/ADR-RES
CAKI-1 = tested on: CAKI-1
OVCAR-4 = tested on: OVCAR-4
SF-268 = tested on: SF-268
HOP-62 = tested on: HOP-62
SK-MEL-5 = tested on: SK-MEL-5
UACC-62 = tested on: UACC-62
A549 = tested on: A549
OVCAR-8 = tested on: OVCAR-8
A498 = tested on: A498
NCI-H23 = tested on: NCI-H23
HT-29 = tested on: HT-29
NCI-H226 = tested on: NCI-H226
HCC 2998 = tested on: HCC 2998
ACHN = tested on: ACHN
M14 = tested on: M14
TK-10 = tested on: TK-10
OVCAR-5 = tested on: OVCAR-5
T47D = tested on: T47D
SK-MEL-28 = tested on: SK-MEL-28

Measured: GI50

CC(=O)C(=Cc1ccc(C=C(C(C)=O)C(C)=O)cc1)C(C)=O
inactive: NCI/ADR-RES 2.28 µM | CAKI-1 1.74 µM | OVCAR-4 1.9 µM | SF-268 1.41 µM | HOP-62 2.08 µM | SK-MEL-5 1.9 µM | UACC-62 1.65 µM | A549 2.93 µM | OVCAR-8 2.05 µM | A498 2.58 µM | NCI-H23 1.93 µM | HT-29 1.2 µM | NCI-H226 3.23 µM | HCC 2998 4.81 µM | ACHN 1.76 µM | M14 1.34 µM | TK-10 2.22 µM | OVCAR-5 2.79 µM | T47D 3.05 µM | SK-MEL-28 1.71 µM

OCCSCc1ccccc1
inactive: NCI/ADR-RES > 100 µM | CAKI-1 > 100 µM | OVCAR-4 > 100 µM | SF-268 > 100 µM | HOP-62 > 100 µM | SK-MEL-5 > 100 µM | UACC-62 > 100 µM | A549 > 100 µM | OVCAR-8 > 100 µM | A498 > 100 µM | NCI-H23 > 100 µM | HT-29 > 100 µM | NCI-H226 > 100 µM | HCC 2998 > 100 µM | ACHN > 100 µM | M14 > 100 µM | TK-10 > 100 µM | OVCAR-5 > 100 µM | T47D > 100 µM | SK-MEL-28 > 100 µM

C/C(CC(O)(C(F)(F)F)C(F)(F)F)=N\NC(N)=S
inactive: NCI/ADR-RES > 10 µM | CAKI-1 > 10 µM | OVCAR-4 > 10 µM | SF-268 > 10 µM | HOP-62 > 10 µM | SK-MEL-5 > 10 µM | UACC-62 > 10 µM | A549 > 10 µM | OVCAR-8 > 10 µM | A498 > 10 µM | NCI-H23 > 10 µM | HT-29 > 10 µM | NCI-H226 > 10 µM | HCC 2998 > 10 µM | ACHN > 10 µM | M14 > 10 µM | TK-10 > 10 µM | T47D > 10 µM | SK-MEL-28 > 10 µM

O=c1[nH]c(=O)n(COCc2ccccc2)c2ccsc12
inactive: NCI/ADR-RES > 100 µM | CAKI-1 > 100 µM | OVCAR-4 > 100 µM | SF-268 > 100 µM | HOP-62 96.4 µM | SK-MEL-5 > 100 µM | A549 > 100 µM | OVCAR-8 > 100 µM | A498 > 100 µM | HT-29 > 100 µM | NCI-H226 > 100 µM | HCC 2998 > 100 µM | ACHN > 100 µM | M14 > 100 µM | TK-10 > 100 µM | OVCAR-5 > 100 µM | T47D > 100 µM | SK-MEL-28 > 100 µM

COc1cc(/C=C2/SC(c3ccccc3)N(c3cccc([N+](=O)[O-])c3)C2=O)cc(OC)c1OC (configuration not stated)
inactive: NCI/ADR-RES > 100 µM | CAKI-1 > 100 µM | OVCAR-4 > 100 µM | SF-268 > 100 µM | HOP-62 > 100 µM | SK-MEL-5 50.1 µM | UACC-62 95.3 µM | A549 > 100 µM | OVCAR-8 > 100 µM | A498 > 100 µM | NCI-H23 > 100 µM | NCI-H226 > 100 µM | HCC 2998 > 100 µM | ACHN > 100 µM | M14 > 100 µM | TK-10 > 100 µM | OVCAR-5 > 100 µM | T47D 97.5 µM | SK-MEL-28 55.5 µM

CCNc1cc2c3c(c1)CCN3CCC2
inactive: NCI/ADR-RES > 10 µM | CAKI-1 > 10 µM | OVCAR-4 > 10 µM | SF-268 > 10 µM | HOP-62 > 10 µM | SK-MEL-5 > 10 µM | UACC-62 > 10 µM | A549 > 10 µM | OVCAR-8 8.59 µM | A498 > 10 µM | NCI-H23 > 10 µM | HT-29 > 10 µM | NCI-H226 > 10 µM | HCC 2998 > 10 µM | ACHN > 10 µM | M14 > 10 µM | TK-10 > 10 µM | T47D 4.71 µM | SK-MEL-28 > 10 µM

NNC(=O)Cc1cccnc1
inactive: NCI/ADR-RES > 100 µM | CAKI-1 > 100 µM | OVCAR-4 > 100 µM | SF-268 > 100 µM | HOP-62 > 100 µM | SK-MEL-5 > 100 µM | UACC-62 > 100 µM | A549 > 100 µM | OVCAR-8 > 100 µM | A498 > 100 µM | NCI-H23 > 100 µM | HT-29 > 100 µM | HCC 2998 > 100 µM | ACHN > 100 µM | M14 > 100 µM | TK-10 > 100 µM | OVCAR-5 > 100 µM | T47D > 100 µM | SK-MEL-28 > 100 µM

CCCCCCCCCCCCCCCCNC(=O)/C(O)=C/C(=O)c1ccc(C)cc1
inactive: NCI/ADR-RES > 10 µM | CAKI-1 > 10 µM | OVCAR-4 > 10 µM | SF-268 > 10 µM | HOP-62 > 10 µM | SK-MEL-5 > 10 µM | OVCAR-8 > 10 µM | A498 > 10 µM | NCI-H23 > 10 µM | HT-29 > 10 µM | NCI-H226 > 10 µM | HCC 2998 > 10 µM | ACHN > 10 µM | M14 > 10 µM | TK-10 > 10 µM | OVCAR-5 > 10 µM | T47D > 10 µM | SK-MEL-28 > 10 µM

CC[C@@]1(CCC(=O)NCCc2c[nH]c3ccccc23)CCC(=O)N2CCc3c([nH]c4ccccc34)[C@H]21
inactive: NCI/ADR-RES 4.57 µM | CAKI-1 > 100 µM | OVCAR-4 12.9 µM | SF-268 5.64 µM | HOP-62 37 µM | SK-MEL-5 24.2 µM | UACC-62 17.1 µM | A549 8.73 µM | A498 27.1 µM | NCI-H23 10.3 µM | NCI-H226 20 µM | HCC 2998 14.2 µM | ACHN 15.3 µM | M14 12.6 µM | TK-10 16.7 µM | OVCAR-5 22.8 µM | T47D 28.7 µM | SK-MEL-28 39.4 µM

COc1cc2nc(-c3ccccc3F)nc(O)c2cc1OC
inactive: NCI/ADR-RES > 100 µM | CAKI-1 > 100 µM | OVCAR-4 > 100 µM | SF-268 > 100 µM | HOP-62 92.5 µM | SK-MEL-5 > 100 µM | UACC-62 60 µM | A549 > 100 µM | OVCAR-8 > 100 µM | A498 > 100 µM | NCI-H23 > 100 µM | HT-29 59.4 µM | NCI-H226 > 100 µM | HCC 2998 > 100 µM | ACHN > 100 µM | M14 > 100 µM | TK-10 > 100 µM | OVCAR-5 > 100 µM | T47D > 100 µM

CC(=O)OCC1OC(SC2=N/C(=C\c3ccc(Br)s3)C(=O)N2CN2CCOCC2)C(OC(C)=O)C(OC(C)=O)C1OC(C)=O (configuration not stated)
inactive: NCI/ADR-RES 20.4 µM | CAKI-1 17.9 µM | OVCAR-4 29.4 µM | SF-268 32.8 µM | HOP-62 23 µM | SK-MEL-5 19.1 µM | UACC-62 15.4 µM | OVCAR-8 16.3 µM | A498 20.5 µM | NCI-H23 12.7 µM | HT-29 15.5 µM | NCI-H226 11.3 µM | HCC 2998 19.8 µM | ACHN 16.2 µM | TK-10 16.7 µM | OVCAR-5 22.9 µM | T47D 27.9 µM | SK-MEL-28 15.7 µM

COC(=O)CN(CC1O[C@@H]2OC(C)(C)O[C@@H]2C1NC(C)=O)C(=O)OCc1ccccc1 (some centres not stated)
inactive: NCI/ADR-RES > 100 µM | CAKI-1 > 100 µM | OVCAR-4 > 100 µM | SF-268 > 100 µM | HOP-62 > 100 µM | SK-MEL-5 > 100 µM | UACC-62 > 100 µM | A549 > 100 µM | OVCAR-8 > 100 µM | A498 > 100 µM | HT-29 > 100 µM | NCI-H226 > 100 µM | HCC 2998 > 100 µM | ACHN > 100 µM | M14 > 100 µM | TK-10 > 100 µM | OVCAR-5 > 100 µM | T47D > 100 µM | SK-MEL-28 > 100 µM

Cc1ccc2nc(Cl)c(/C=N/N3C(=O)/C(=C/c4ccccc4S)N=C3c3ccccc3)cc2c1
inactive: NCI/ADR-RES 22.9 µM | CAKI-1 44.6 µM | OVCAR-4 29.6 µM | SF-268 36.6 µM | HOP-62 27.7 µM | SK-MEL-5 31.6 µM | UACC-62 38.7 µM | A549 33.4 µM | OVCAR-8 47.8 µM | A498 29.5 µM | HT-29 42.8 µM | HCC 2998 45.3 µM | ACHN 46.6 µM | M14 23.3 µM | TK-10 48.6 µM | OVCAR-5 > 100 µM | T47D 48.5 µM | SK-MEL-28 > 100 µM

CC(C)(C)C(=O)CC1(O)C=C(O)C(O)(CC(=O)C(C)(C)C)O1 (configuration not stated)
inactive: NCI/ADR-RES 20.9 µM | CAKI-1 13.6 µM | OVCAR-4 12.8 µM | SF-268 11.6 µM | HOP-62 15.5 µM | SK-MEL-5 21.2 µM | UACC-62 26.5 µM | A549 61.7 µM | OVCAR-8 23.6 µM | A498 > 100 µM | NCI-H23 22.1 µM | HT-29 18.7 µM | NCI-H226 18.3 µM | HCC 2998 > 100 µM | M14 15.8 µM | TK-10 82.2 µM | OVCAR-5 > 100 µM | T47D > 100 µM | SK-MEL-28 31.6 µM

Cc1csc2c(P(=O)(OC(C)C)OC(C)C)c(-c3ccccc3)cn12
inactive: NCI/ADR-RES 18 µM | CAKI-1 18.2 µM | OVCAR-4 17.5 µM | SF-268 16.6 µM | HOP-62 18.2 µM | SK-MEL-5 16.2 µM | UACC-62 6.62 µM | A549 16.6 µM | OVCAR-8 17.4 µM | A498 18.7 µM | NCI-H23 19.1 µM | HT-29 15.6 µM | HCC 2998 14.6 µM | ACHN 15 µM | M14 18.4 µM | TK-10 11.5 µM | OVCAR-5 14.6 µM | T47D 3.84 µM | SK-MEL-28 17.7 µM
